Measured values reported in ChEMBL document CHEMBL1201862, “PubChem BioAssay data set” (2004).
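How tested: cells in 96-well plates exposed to compound for 48 hours at five concentrations. GI50 is the concentration that inhibits growth by half.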 The source made the active and inactive calls. No stated cut-off is given here; in the data, active = GI50 up to about 1.1 µM and inactive = higher.

Experiments:
Test in all cases: NCI anticancer screen, dose series, 48 h
786-0 = test system: 786-0
ACHN = test system: ACHN
UACC-257 = test system: UACC-257
SK-MEL-5 = test system: SK-MEL-5
OVCAR-5 = test system: OVCAR-5
HCT-15 = test system: HCT-15
KM12 = test system: KM12
COLO 205 = test system: COLO 205
NCI/ADR-RES = test system: NCI/ADR-RES
SN12C = test system: SN12C
SK-MEL-2 = test system: SK-MEL-2
NCI-H226 = test system: NCI-H226
SNB-19 = test system: SNB-19
SF-295 = test system: SF-295
OVCAR-3 = test system: OVCAR-3
CCRF-CEM = test system: CCRF-CEM
IGROV-1 = test system: IGROV-1
UACC-62 = test system: UACC-62
SR = test system: SR
MOLT-4 = test system: MOLT-4
DU-145 = test system: DU-145
SF-539 = test system: SF-539
EKVX = test system: EKVX
MDA-MB-435 = test system: MDA-MB-435
CAKI-1 = test system: CAKI-1
MDA-N = test system: MDA-N
LOX IMVI = test system: LOX IMVI
TK-10 = test system: TK-10
A498 = test system: A498
U-251 = test system: U-251
NCI-H460 = test system: NCI-H460
MDA-MB-231 = test system: MDA-MB-231
HOP-92 = test system: HOP-92
Hs-578T = test system: Hs-578T
RXF 393 = test system: RXF 393
RPMI-8226 = test system: RPMI-8226
T47D = test system: T47D
K562 = test system: K562
NCI-H23 = test system: NCI-H23
OVCAR-4 = test system: OVCAR-4
SW-620 = test system: SW-620
PC-3 = test system: PC-3
HCT-116 = test system: HCT-116
SNB-75 = test system: SNB-75
SF-268 = test system: SF-268
MCF7 = test system: MCF7
M14 = test system: M14
UO-31 = test system: UO-31
BT-549 = test system: BT-549
OVCAR-8 = test system: OVCAR-8
HOP-62 = test system: HOP-62
SK-OV-3 = test system: SK-OV-3
NCI-H522 = test system: NCI-H522
HT-29 = test system: HT-29
Malme-3M = test system: Malme-3M
SK-MEL-28 = test system: SK-MEL-28
HL-60 = test system: HL-60
A549 = test system: A549

Brc1ccc(/N=N/N2CCCCC2)cc1
GI50 (786-0): 44.3 µM (inactive)
GI50 (ACHN): 76.6 µM (inactive)
GI50 (UACC-257): 49.3 µM (inactive)
GI50 (SK-MEL-5): 34.5 µM (inactive)
GI50 (OVCAR-5): 80.7 µM (inactive)
GI50 (HCT-15): 27.5 µM
GI50 (KM12): 27 µM (inactive)
GI50 (COLO 205): 69.3 µM (inactive)
GI50 (NCI/ADR-RES): 51.3 µM (inactive)
GI50 (SN12C): 57.9 µM (inactive)
GI50 (SK-MEL-2): 20.3 µM (inactive)
GI50 (NCI-H226): > 100 µM (inactive)
GI50 (SNB-19): > 100 µM (inactive)
GI50 (SF-295): 35.6 µM (inactive)
GI50 (OVCAR-3): 42.1 µM (inactive)
GI50 (CCRF-CEM): 22.2 µM (inactive)
GI50 (IGROV-1): 44.6 µM (inactive)
GI50 (UACC-62): 72.9 µM (inactive)
GI50 (SR): 16.6 µM (inactive)
GI50 (MOLT-4): 19.9 µM (inactive)
GI50 (DU-145): > 100 µM (inactive)
GI50 (SF-539): > 100 µM (inactive)
GI50 (EKVX): 40.1 µM (inactive)
GI50 (MDA-MB-435): 34.3 µM (inactive)
GI50 (CAKI-1): 88.1 µM (inactive)
GI50 (MDA-N): 57.3 µM (inactive)
GI50 (LOX IMVI): 35.7 µM (inactive)
GI50 (TK-10): 59.2 µM (inactive)
GI50 (A498): 57.5 µM (inactive)
GI50 (U-251): 54 µM (inactive)
GI50 (NCI-H460): 45 µM (inactive)
GI50 (MDA-MB-231): > 100 µM (inactive)
GI50 (HOP-92): 33.6 µM (inactive)
GI50 (Hs-578T): 65.5 µM (inactive)
GI50 (RXF 393): 38.3 µM (inactive)
GI50 (RPMI-8226): 14.1 µM (inactive)
GI50 (T47D): 42.3 µM (inactive)
GI50 (K562): 27.4 µM (inactive)
GI50 (NCI-H23): 62.1 µM (inactive)
GI50 (OVCAR-4): 74.8 µM (inactive)
GI50 (SW-620): 52.7 µM (inactive)
GI50 (PC-3): 35.2 µM (inactive)
GI50 (HCT-116): 34.2 µM (inactive)
GI50 (SNB-75): 41.9 µM (inactive)
GI50 (SF-268): 66.1 µM (inactive)
GI50 (MCF7): 35.5 µM (inactive)
GI50 (M14): 85.9 µM (inactive)
GI50 (UO-31): 60 µM (inactive)
GI50 (BT-549): 98.2 µM (inactive)
GI50 (OVCAR-8): 45.6 µM (inactive)
GI50 (HOP-62): 67 µM (inactive)
GI50 (SK-OV-3): > 100 µM (inactive)
GI50 (NCI-H522): 24 µM (inactive)

Oc1c(CN2CCOCC2)ccc(CN2CCOCC2)c1O
GI50 (786-0): 37.5 µM (inactive)
GI50 (ACHN): 30.9 µM (inactive)
GI50 (UACC-257): 27.2 µM (inactive)
GI50 (SK-MEL-5): 25.5 µM (inactive)
GI50 (OVCAR-5): 57 µM (inactive)
GI50 (HCT-15): 34 µM
GI50 (KM12): 75.7 µM (inactive)
GI50 (COLO 205): 45.9 µM (inactive)
GI50 (NCI/ADR-RES): 30.1 µM (inactive)
GI50 (SN12C): 25.6 µM (inactive)
GI50 (HT-29): 52.1 µM (inactive)
GI50 (SK-MEL-2): 29 µM (inactive)
GI50 (Malme-3M): 31 µM (inactive)
GI50 (NCI-H226): 28.4 µM (inactive)
GI50 (SNB-19): 43.3 µM (inactive)
GI50 (SF-295): 26 µM (inactive)
GI50 (OVCAR-3): 21.2 µM (inactive)
GI50 (CCRF-CEM): 3.62 µM (inactive)
GI50 (IGROV-1): 70.5 µM (inactive)
GI50 (UACC-62): 25.2 µM (inactive)
GI50 (SR): 24.5 µM (inactive)
GI50 (MOLT-4): 24.2 µM (inactive)
GI50 (DU-145): 26.6 µM (inactive)
GI50 (SF-539): 25.7 µM (inactive)
GI50 (EKVX): 50.8 µM (inactive)
GI50 (MDA-MB-435): 81.7 µM (inactive)
GI50 (CAKI-1): 52 µM (inactive)
GI50 (MDA-N): 50.2 µM (inactive)
GI50 (LOX IMVI): 39 µM (inactive)
GI50 (TK-10): 47.2 µM (inactive)
GI50 (A498): > 100 µM (inactive)
GI50 (U-251): 40.1 µM (inactive)
GI50 (NCI-H460): 25.7 µM (inactive)
GI50 (MDA-MB-231): > 100 µM (inactive)
GI50 (HOP-92): > 100 µM (inactive)
GI50 (Hs-578T): > 100 µM (inactive)
GI50 (RXF 393): 29.2 µM (inactive)
GI50 (RPMI-8226): 50.1 µM (inactive)
GI50 (T47D): 39.7 µM (inactive)
GI50 (K562): 34.3 µM (inactive)
GI50 (NCI-H23): 36.6 µM (inactive)
GI50 (OVCAR-4): > 100 µM (inactive)
GI50 (SW-620): 83.6 µM (inactive)
GI50 (PC-3): 48 µM (inactive)
GI50 (HCT-116): 38 µM (inactive)
GI50 (SNB-75): 15.1 µM (inactive)
GI50 (SF-268): 30.9 µM (inactive)
GI50 (MCF7): 35.2 µM (inactive)
GI50 (M14): 22.9 µM (inactive)
GI50 (SK-MEL-28): 61.5 µM (inactive)
GI50 (HL-60): 3.8 µM (inactive)
GI50 (UO-31): 18 µM (inactive)
GI50 (BT-549): 81.3 µM (inactive)
GI50 (OVCAR-8): 47.2 µM (inactive)
GI50 (A549): 39.4 µM (inactive)
GI50 (HOP-62): 42.3 µM (inactive)
GI50 (SK-OV-3): 54 µM (inactive)
GI50 (NCI-H522): 29.6 µM (inactive)
